From ChEMBL document CHEMBL3991601, “The target landscape of clinical kinase drugs” (Science, 2017)
Active and inactive are the calls of the source.

Key:
[1] = molecular target: Insulin-like growth factor 1 receptor (Homo sapiens, UniProt P08069)
[2] = molecular target: Mitotic checkpoint serine/threonine-protein kinase BUB1 (Homo sapiens, UniProt O43683)
[3] = molecular target: T1, Signal recognition particle receptor subunit alpha (Homo sapiens, UniProt P08240)
T1 sequence (P08240 whole entry): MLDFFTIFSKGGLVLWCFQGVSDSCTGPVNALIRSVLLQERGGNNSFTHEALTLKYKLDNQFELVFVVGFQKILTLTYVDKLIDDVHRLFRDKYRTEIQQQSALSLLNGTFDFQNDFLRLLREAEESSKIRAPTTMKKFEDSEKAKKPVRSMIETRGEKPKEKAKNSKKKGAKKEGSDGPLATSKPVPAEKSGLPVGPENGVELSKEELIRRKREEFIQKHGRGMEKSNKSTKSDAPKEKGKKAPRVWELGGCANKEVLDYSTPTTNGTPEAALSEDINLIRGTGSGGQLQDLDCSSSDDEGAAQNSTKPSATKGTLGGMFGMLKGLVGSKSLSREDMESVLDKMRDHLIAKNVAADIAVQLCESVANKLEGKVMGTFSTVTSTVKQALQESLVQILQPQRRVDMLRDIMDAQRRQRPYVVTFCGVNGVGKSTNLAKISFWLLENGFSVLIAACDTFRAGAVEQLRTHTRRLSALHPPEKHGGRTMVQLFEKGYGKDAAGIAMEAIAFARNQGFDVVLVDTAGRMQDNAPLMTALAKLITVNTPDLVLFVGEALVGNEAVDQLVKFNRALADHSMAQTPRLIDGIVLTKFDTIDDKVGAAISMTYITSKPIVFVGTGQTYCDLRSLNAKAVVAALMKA

[4] = molecular target: T2, Cyclin-G-associated kinase (Homo sapiens, UniProt O14976)
T2 sequence (O14976 whole entry): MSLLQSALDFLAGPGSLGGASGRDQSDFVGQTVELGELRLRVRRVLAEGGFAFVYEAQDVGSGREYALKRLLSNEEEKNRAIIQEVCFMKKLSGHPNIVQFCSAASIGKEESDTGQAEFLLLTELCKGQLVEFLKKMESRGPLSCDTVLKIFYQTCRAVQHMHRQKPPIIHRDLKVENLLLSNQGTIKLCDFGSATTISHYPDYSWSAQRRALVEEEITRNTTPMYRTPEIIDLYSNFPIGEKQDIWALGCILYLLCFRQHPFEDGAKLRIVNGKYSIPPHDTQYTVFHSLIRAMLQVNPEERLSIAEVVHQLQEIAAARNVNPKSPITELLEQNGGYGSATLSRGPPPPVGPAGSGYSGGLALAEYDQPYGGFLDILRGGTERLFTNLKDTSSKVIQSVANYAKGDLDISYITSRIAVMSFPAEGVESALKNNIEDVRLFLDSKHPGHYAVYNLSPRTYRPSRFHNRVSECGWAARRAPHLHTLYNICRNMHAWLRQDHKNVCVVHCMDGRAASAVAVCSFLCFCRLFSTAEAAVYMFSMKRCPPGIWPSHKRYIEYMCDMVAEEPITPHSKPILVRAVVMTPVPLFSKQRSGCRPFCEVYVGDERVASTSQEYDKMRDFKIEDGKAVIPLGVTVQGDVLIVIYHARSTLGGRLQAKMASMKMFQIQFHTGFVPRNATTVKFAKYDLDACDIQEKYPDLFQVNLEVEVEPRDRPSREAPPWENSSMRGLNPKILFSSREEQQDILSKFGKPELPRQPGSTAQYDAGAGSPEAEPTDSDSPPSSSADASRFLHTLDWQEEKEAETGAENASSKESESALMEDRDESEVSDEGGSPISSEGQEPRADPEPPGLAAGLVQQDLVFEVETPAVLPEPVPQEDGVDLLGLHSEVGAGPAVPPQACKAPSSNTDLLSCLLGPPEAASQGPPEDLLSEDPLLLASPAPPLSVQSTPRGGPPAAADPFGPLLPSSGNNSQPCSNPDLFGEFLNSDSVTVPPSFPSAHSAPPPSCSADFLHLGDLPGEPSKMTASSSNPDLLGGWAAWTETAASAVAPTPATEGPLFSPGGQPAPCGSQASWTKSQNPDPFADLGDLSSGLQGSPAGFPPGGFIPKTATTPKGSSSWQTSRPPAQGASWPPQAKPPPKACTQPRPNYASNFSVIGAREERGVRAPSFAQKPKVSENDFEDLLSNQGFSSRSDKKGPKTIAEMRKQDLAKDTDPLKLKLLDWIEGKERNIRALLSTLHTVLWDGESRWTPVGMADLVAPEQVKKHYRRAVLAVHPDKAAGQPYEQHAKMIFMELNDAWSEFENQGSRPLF

[5] = molecular target: cAMP-dependent protein kinase catalytic subunit gamma (Homo sapiens, UniProt P22612)
Sequence of cAMP-dependent protein kinase catalytic subunit gamma (P22612 whole entry): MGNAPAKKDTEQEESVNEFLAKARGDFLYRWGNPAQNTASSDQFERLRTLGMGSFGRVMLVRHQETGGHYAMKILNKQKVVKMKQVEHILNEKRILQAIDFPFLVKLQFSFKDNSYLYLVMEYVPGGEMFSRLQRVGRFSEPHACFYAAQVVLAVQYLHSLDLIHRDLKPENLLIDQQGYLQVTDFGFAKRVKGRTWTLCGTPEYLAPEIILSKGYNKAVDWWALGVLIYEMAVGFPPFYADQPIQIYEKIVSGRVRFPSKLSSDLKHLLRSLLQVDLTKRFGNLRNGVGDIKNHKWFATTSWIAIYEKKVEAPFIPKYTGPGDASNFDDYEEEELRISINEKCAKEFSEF

[6] = molecular target: T3, cGMP-dependent protein kinase 1 (Homo sapiens, UniProt Q13976)
T3 sequence (Q13976 whole entry): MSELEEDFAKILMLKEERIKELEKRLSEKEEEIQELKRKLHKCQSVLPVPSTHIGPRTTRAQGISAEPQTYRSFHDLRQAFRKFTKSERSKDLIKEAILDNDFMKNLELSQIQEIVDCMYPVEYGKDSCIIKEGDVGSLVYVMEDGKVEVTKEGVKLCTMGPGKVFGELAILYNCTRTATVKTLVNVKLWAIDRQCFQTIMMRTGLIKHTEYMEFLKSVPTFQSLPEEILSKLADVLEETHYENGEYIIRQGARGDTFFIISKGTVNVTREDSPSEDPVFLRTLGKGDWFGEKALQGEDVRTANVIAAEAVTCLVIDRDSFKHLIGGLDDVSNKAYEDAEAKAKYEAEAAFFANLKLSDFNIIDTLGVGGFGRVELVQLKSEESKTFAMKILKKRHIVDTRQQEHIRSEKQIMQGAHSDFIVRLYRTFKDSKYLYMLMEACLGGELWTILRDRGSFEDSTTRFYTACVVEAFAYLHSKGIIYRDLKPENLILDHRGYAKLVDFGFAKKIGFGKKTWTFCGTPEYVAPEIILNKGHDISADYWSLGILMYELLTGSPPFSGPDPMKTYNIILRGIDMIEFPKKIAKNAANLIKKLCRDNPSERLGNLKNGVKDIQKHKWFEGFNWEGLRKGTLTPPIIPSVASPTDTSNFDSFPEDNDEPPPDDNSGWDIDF

[7] = molecular target: Dual specificity protein kinase CLK2 (Homo sapiens, UniProt P49760)
Sequence of Dual specificity protein kinase CLK2 (P49760 whole entry): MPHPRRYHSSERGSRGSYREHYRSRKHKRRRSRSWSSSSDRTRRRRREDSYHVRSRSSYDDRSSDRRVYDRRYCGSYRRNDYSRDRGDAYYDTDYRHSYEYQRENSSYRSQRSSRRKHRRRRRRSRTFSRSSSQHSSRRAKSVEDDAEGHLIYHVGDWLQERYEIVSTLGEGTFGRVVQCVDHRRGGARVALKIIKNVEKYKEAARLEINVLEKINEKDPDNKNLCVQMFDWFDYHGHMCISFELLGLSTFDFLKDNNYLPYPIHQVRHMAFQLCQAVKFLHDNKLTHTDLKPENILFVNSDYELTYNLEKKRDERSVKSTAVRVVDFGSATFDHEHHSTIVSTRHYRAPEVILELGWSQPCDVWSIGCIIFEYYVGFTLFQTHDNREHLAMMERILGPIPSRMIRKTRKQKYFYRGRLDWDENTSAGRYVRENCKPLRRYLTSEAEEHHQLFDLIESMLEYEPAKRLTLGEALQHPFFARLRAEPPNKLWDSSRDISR
Note: in the data inactive means no Kd found up to 30 µM.

Sequence of Mitotic checkpoint serine/threonine-protein kinase BUB1 (O43683 whole entry): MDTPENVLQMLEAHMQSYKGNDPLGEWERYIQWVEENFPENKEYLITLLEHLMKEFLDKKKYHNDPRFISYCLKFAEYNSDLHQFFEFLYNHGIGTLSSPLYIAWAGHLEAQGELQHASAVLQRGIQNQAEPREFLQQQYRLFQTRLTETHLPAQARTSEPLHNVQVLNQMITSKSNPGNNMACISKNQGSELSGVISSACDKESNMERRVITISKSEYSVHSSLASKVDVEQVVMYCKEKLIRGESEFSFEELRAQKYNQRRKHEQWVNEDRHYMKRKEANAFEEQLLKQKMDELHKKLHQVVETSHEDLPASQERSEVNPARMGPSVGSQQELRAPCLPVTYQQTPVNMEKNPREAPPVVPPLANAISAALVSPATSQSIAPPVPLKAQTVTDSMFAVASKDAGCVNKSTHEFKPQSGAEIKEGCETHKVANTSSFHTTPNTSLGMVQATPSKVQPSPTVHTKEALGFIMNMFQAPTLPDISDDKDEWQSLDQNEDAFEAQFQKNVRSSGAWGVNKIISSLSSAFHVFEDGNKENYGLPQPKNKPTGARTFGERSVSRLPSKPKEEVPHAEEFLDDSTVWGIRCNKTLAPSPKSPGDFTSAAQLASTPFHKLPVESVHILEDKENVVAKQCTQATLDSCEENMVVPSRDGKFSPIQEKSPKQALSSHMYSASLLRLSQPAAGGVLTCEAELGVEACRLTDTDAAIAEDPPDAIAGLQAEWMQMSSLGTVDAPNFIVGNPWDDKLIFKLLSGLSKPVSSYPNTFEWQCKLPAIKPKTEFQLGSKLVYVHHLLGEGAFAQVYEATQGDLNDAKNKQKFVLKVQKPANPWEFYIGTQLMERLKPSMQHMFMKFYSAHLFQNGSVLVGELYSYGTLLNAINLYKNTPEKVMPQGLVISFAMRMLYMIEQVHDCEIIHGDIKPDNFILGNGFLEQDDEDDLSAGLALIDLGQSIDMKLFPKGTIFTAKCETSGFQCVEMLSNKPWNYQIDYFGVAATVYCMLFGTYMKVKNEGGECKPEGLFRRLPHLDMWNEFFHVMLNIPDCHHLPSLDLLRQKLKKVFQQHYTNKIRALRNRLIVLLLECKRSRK
Sequence of Insulin-like growth factor 1 receptor (P08069 31-736 limits assumed): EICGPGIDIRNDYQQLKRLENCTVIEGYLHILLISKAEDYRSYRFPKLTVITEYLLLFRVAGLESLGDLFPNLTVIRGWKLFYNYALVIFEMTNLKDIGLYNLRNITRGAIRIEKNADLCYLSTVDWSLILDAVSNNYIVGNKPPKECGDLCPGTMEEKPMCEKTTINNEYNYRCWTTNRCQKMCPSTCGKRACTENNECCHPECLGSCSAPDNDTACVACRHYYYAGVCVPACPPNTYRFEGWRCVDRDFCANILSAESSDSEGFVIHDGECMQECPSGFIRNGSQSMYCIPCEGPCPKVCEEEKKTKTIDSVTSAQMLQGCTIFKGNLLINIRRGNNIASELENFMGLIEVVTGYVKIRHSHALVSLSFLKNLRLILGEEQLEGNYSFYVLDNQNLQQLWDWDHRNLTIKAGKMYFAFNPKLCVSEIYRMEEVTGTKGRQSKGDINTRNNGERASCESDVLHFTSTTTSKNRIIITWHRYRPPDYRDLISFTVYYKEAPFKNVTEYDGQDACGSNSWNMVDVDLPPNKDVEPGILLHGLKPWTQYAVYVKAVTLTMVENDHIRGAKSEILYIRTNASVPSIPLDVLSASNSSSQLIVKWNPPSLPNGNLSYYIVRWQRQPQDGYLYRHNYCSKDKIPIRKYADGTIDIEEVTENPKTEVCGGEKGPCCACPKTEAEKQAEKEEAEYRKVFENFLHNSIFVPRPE
Sequence of Insulin-like growth factor 1 receptor (P08069 741-1367 limits assumed): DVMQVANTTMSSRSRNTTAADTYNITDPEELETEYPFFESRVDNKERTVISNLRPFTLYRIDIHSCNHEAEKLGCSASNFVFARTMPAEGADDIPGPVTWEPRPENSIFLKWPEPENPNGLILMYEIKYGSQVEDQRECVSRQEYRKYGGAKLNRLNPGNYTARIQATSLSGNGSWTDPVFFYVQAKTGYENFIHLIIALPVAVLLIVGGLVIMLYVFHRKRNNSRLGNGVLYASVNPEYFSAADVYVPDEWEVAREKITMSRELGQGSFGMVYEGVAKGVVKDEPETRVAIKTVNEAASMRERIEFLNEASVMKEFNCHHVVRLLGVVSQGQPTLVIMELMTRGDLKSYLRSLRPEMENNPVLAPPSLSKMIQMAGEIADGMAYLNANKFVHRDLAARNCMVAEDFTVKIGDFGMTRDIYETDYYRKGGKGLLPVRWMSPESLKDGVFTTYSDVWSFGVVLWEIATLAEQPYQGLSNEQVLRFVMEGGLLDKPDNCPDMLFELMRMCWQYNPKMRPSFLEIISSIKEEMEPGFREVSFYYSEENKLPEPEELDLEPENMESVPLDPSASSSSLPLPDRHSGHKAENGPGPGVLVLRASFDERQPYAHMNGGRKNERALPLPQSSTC

SMILES	Kd [1]	Kd [2]	Kd [3]	Kd [4]	Kd [5]	Kd [6]	Kd [7]
C[C@@H](Oc1cc(C(=O)Nc2ccc(C(=O)N3CCN(C)CC3)cc2)nnc1N)c1c(Cl)ccc(F)c1Cl	> 30 µM (inactive)	> 30 µM (inactive)	> 30 µM (inactive)	> 30 µM (inactive)	> 30 µM (inactive)	> 30 µM (inactive)	–
C[C@H]1CNCCCN1S(=O)(=O)c1cccc2cncc(F)c12	> 30 µM (inactive)	> 30 µM (inactive)	–	> 30 µM (inactive)	> 30 µM (inactive)	> 30 µM (inactive)	–
CCNC(=O)C#Cc1ccc2c(c1)NC(=O)/C2=C(\Nc1ccc(CN(C)C)cc1)c1ccccc1	> 30 µM (inactive)	> 30 µM (inactive)	> 30 µM (inactive)	> 30 µM (inactive)	> 30 µM (inactive)	> 30 µM (inactive)	–
Nc1ncnc2c1c(-c1cccc(OCc3ccccc3)c1)cn2[C@H]1C[C@@H](CN2CCC2)C1 [AEW-541]	–	> 30 µM (inactive)	–	> 30 µM (inactive)	> 30 µM (inactive)	> 30 µM (inactive)	> 30 µM (inactive)
COc1cc(Nc2ncc3c(n2)-c2ccc(Cl)cc2C(c2c(F)cccc2OC)=NC3)ccc1C(=O)O [ALISERTIB]	–	> 30 µM (inactive)	> 30 µM (inactive)	> 30 µM (inactive)	> 30 µM (inactive)	–	–
CNC(=O)c1ccccc1Sc1ccc2c(/C=C/c3ccccn3)n[nH]c2c1 [AXITINIB]	–	> 30 µM (inactive)	> 30 µM (inactive)	–	> 30 µM (inactive)	–	–
COc1cc([C@@H]2c3cc4c(cc3[C@H](O)[C@H]3COC(=O)[C@@H]23)OCO4)cc(OC)c1OC [AXL-1717]	> 30 µM (inactive)	> 30 µM (inactive)	> 30 µM (inactive)	> 30 µM (inactive)	> 30 µM (inactive)	> 30 µM (inactive)	–
Cc1cc(Nc2ncc(Cl)c(Nc3ccccc3S(=O)(=O)C(C)C)n2)c(OC(C)C)cc1C1CCNCC1 [CERITINIB]	–	> 30 µM (inactive)	> 30 µM (inactive)	> 30 µM (inactive)	> 30 µM (inactive)	> 30 µM (inactive)	> 30 µM (inactive)
CC(C)(C)c1nc(-c2cccc(NS(=O)(=O)c3c(F)cccc3F)c2F)c(-c2ccnc(N)n2)s1 [DABRAFENIB]	–	> 30 µM (inactive)	> 30 µM (inactive)	> 30 µM (inactive)	> 30 µM (inactive)	> 30 µM (inactive)	> 30 µM (inactive)
Cn1cc(C2=C(c3cn(C4CCN(Cc5ccccn5)CC4)c4ccccc34)C(=O)NC2=O)c2ccccc21 [ENZASTAURIN]	–	> 30 µM (inactive)	–	–	> 30 µM (inactive)	–	–
CCCCCCCCCCCCCCCCCCOP(=O)([O-])OC1CC[N+](C)(C)CC1 [PERIFOSINE]	> 30 µM (inactive)	–	> 30 µM (inactive)	> 30 µM (inactive)	> 30 µM (inactive)	> 30 µM (inactive)	–
CNC(=O)c1cc(Oc2ccc(NC(=O)Nc3cc(C(C)(C)C)nn3-c3ccc4ncccc4c3)c(F)c2)ccn1 [REBASTINIB]	> 30 µM (inactive)	> 30 µM (inactive)	> 30 µM (inactive)	> 30 µM (inactive)	> 30 µM (inactive)	> 30 µM (inactive)	–
Cc1cc(Nc2ncnc3ccc(NC4=NC(C)(C)CO4)cc23)ccc1Oc1ccn2ncnc2c1 [TUCATINIB]	> 30 µM (inactive)	> 30 µM (inactive)	> 30 µM (inactive)	> 30 µM (inactive)	> 30 µM (inactive)	> 30 µM (inactive)	–

Now from value to compound:

Kd [1]	Kd [2]	Kd [3]	Kd [4]	Kd [5]	Kd [6]	Kd [7]	SMILES
–	> 30 µM (inactive)	> 30 µM (inactive)	–	–	–	–	C[C@@H](Oc1cc(-n2cnc3ccc(CN4CCN(C)CC4)cc32)sc1C(N)=O)c1ccccc1C(F)(F)F [GSK-461364]
> 30 µM (inactive)	> 30 µM (inactive)	> 30 µM (inactive)	> 30 µM (inactive)	> 30 µM (inactive)	> 30 µM (inactive)	–	CN(C[C@@H]1COCCO1)S(=O)(=O)Nc1ccc2ccc3ncc(-c4cnn(C)c4)cc3c(=O)c2c1 [MK-2461]
–	> 30 µM (inactive)	> 30 µM (inactive)	2.09 µM (active)	–	–	–	Cc1[nH]c(/C=C2\C(=O)Nc3ccccc32)c(C)c1CCC(=O)O [ORANTINIB]
–	–	> 30 µM (inactive)	> 30 µM (inactive)	> 30 µM (inactive)	–	–	NC(=O)c1c(OCc2c(F)cc(Br)cc2F)nsc1NC(=O)NCCCCN1CCCC1 [OSI-632]
–	> 30 µM (inactive)	> 30 µM (inactive)	1.76 µM (active)	> 30 µM (inactive)	–	–	CC(=O)NCC(=O)N1[C@@H]2CC[C@H]1c1ccc(Nc3ncc(C(F)(F)F)c(NC4CCC4)n3)cc12 [PF-03814735]
–	–	> 30 µM (inactive)	–	> 30 µM (inactive)	–	–	O=C(NOCCO)c1cc(CN2OCCCC2=O)c(F)c(F)c1Nc1ccc(I)cc1F [RO-4987655]
–	> 30 µM (inactive)	–	–	> 30 µM (inactive)	–	–	N#CC[C@H](C1CCCC1)n1cc(-c2ncnc3[nH]ccc23)cn1 [RUXOLITINIB]
> 30 µM (inactive)	> 30 µM (inactive)	> 30 µM (inactive)	> 30 µM (inactive)	> 30 µM (inactive)	> 30 µM (inactive)	–	CCS(=O)(=O)c1cccc(-c2cc(C(=O)NC3CCN(C)CC3)c(C)c3[nH]c4ncc(C)cc4c23)c1 [TAK-901]
> 30 µM (inactive)	> 30 µM (inactive)	> 30 µM (inactive)	0.615 µM (active)	> 30 µM (inactive)	> 30 µM (inactive)	–	COc1cc2c(Nc3ccc(Cl)c(Cl)c3F)ncnc2cc1OC[C@@H]1C[C@@H]2CN(C)C[C@@H]2C1 [TESEVATINIB]
> 30 µM (inactive)	> 30 µM (inactive)	> 30 µM (inactive)	> 30 µM (inactive)	> 30 µM (inactive)	> 30 µM (inactive)	–	C[C@@H](N)c1ccc(C(=O)Nc2ccnc3[nH]ccc23)cc1 [Y-39983]
> 30 µM (inactive)	–	> 30 µM (inactive)	> 30 µM (inactive)	> 30 µM (inactive)	> 30 µM (inactive)	–	CN1C/C=C/CCOc2cccc(c2)-c2ccnc(n2)Nc2cccc(c2)C1 [ZOTIRACICLIB]
